From patent US20060177448A1, “Inhibiting HER2 shedding with matrix metalloprotease antagonists” (Genentech, Inc., priority 2005, published 2006)

Experiments:
[1] = test system: breast carcinoma cell lines; settings: cited from earlier work
SKBR-3 cells = test: HER2 ECD ELISA of conditioned media (HER2 shedding), SKBR-3 cells; assay type: cell-based, human
Procedure: BT 474, MCF-7, and SKBR-3 cells were maintained in high-glucose DMEM:Ham's F12 (50:50) supplemented with 10% heat-inactivated FBS and 2 mM L-Glutamine. […] Cell lines were maintained at 37° C. in a humidified incubator supplied with 5% CO2. BT 474 and SKBR-3 cells were transiently transfected with constructs as described by electroporation using kit V according to the manufacturer's instructions (AMAXA™).
Serum was diluted 1:50 using assay buffer (PBS/0.5% BSA, 0.05% TWEEN® 20/10 ppm PROCLIN® 300/0.2% BGG/0.25% CHAPS/0.15 M NaCl/5mM EDTA (pH 7.4) followed by additional 1:2 serial dilutions. Shed HER2 was captured using a goat anti-HER2 polyclonal antibody (Genentech) onto NUNC® Maxisorp plates and detected using a biotin-conjugated rabbit anti-HER2 polyclonal antibody (Genentech) followed by a AMDEX™-strepavidin-horseradish peroxidase antibody (Amersham Pharmacia Biotech) following a procedure described previously (Sias et al., J. Immunol. Meth. 109:219-27 (1990)). For cell culture experiments, cells were treated as indicated and conditioned media was collected and diluted in assay buffer serially 1:2. The concentration of shed HER2 in serum or in conditioned media was determined from a four-parameter fit of a standard curve using purified recombinant HER2 ECD protein (Genentech) as a standard.
The pSIREN shRNA construct(s) or vector alone were transiently transfected into SKBR-3 and BT 474 cells using AMAXA™ kit V following manufacturer's recommendations. After 48 hours, conditioned media was collected and assayed for shed HER2 by HER2 ELISA and the cells were lysed directly on the plate using 2×Sample buffer.

Fo5 tumors = test: GM6001 injections in FVB mice with Fo5 xenograft tumors (serum HER2 ECD ELISA, p95 HER2 Western blot); assay type: in vivo, mouse; settings: 100 mg/kg intraperitoneally daily for 3 days, day four
Excerpt: The Fo5 and f2: 1282 lines have been previously described (Finkle et al., Clin. Cancer Res. 10: 2499-2511 (2004)). These lines were derived from primary tumors from a MMTV HER2 transgenic mouse and passaged in the mammary fat pad of FVB mice.
Fo5 tumors were transplanted into FVB mice and allowed to grow to an average size of 400-600 mm^3 prior to initiating the study. GM6001 (3-[N-hydroxycarbomyl]-[2R]-isobutylpropionyl-L-tryptophan methylamide) was obtained from Calbiochem and reconstituted in a slurry of 4% carboxymethylcellulose/0.9% PBS and administered daily by intraperitoneal injection at 100 mg/kg body weight for 3 days. […] Tumors size was measured at day 0 and at day 4. […]
Serun from mice harboring Fo5 or f2: 1282 xenograft tumors was collected by cardiac puncture and HER2 ECD levels detected using a previously described HER2 ELISA (Finkle et al. Clin. Cancer Res. 10: 2499-2511 (2004)). […] The concentration of shed HER2 in serum or in conditioned media was determined from a four-parameter fit of a standard curve using purified recombinant HER2 ECD protein (Genentech) as a standard.
Fo5 and f2:1282 tumors were resuspended in lysis buffer with protease inhibitors and homogenized using a POLYTRON TISSUEMIZER™ (PT2 100) on ice. Tumor lysates were cleared of insoluble material by centrifugation and total protein levels were determined using a BCA protein assay kit. […]

CNC(=O)[C@H](Cc1ccccc1)NC(=O)[C@H](CC(C)C)[C@H](CSc1cccs1)C(=O)NO [BB-94]
inhibition of HER2 ECD shedding [1]: inhibited HER2 ECD shedding

CNC(=O)[C@H](Cc1c[nH]c2ccccc12)NC(=O)[C@@H](CC(=O)NO)CC(C)C [GM6001, 3-[N-hydroxycarbomyl]-[2R]-isobutylpropionyl-L-tryptophan methylamide]
inhibition of HER2 shedding (HER2 ECD ELISA) (SKBR-3 cells; dose response): dose dependently inhibited HER2 shedding
amount of p95 HER2 in tumor lysates compared to control animals (Fo5 tumors): significant reduction
serum HER2 ECD levels (Fo5 tumors; versus vehicle): greater reduction

Timp-1: naturally occurring peptides that regulate metalloprotease activity
HER2 ECD levels in conditioned media (SKBR-3 cells; 1 μg/ml): reduced HER2 ECD levels
